{"source": "patent US20230023092A1", "about": "“TREATMENT OF DEPRESSION AND OTHER VARIOUS DISORDERS WITH PSILOCYBIN” (COMPASS […], priority 2019, published 2023)", "key": {"[1]": {"system": "subjects", "conditions": "prevalence unknown but likely; cited from earlier work"}, "[2]": {"system": "healthy subjects", "assay": "NEO-Five Factor Inventory (NEO-FFI)", "type": "in vivo, human", "method": "In some embodiments, the NEO-Five Factor Inventory (NEO-FFI) test is used to evaluate the safety and/or efficacy of psilocybin. The NEO-FFI evaluates 5 broad domains of personality—Neuroticism, Extroversion, Openness, Agreeableness and Conscientiousness.\nThe Neuroticism Extraversion Openness-Five Factor Inventory (NEO-FFI) and Symptom Checklist-90 Item (SCL-90) were administered. Details of the MMRM applied to the change from baseline scores for the NEO-FFI and SCL-90 are provided below in Table 2Q."}, "[3]": {"system": "healthy subjects", "assay": "CANTAB Paired Associates Learning (PALTEA)", "type": "in vivo, human", "conditions": "Day 28", "source_text": "In some embodiments, the Paired Associates Learning (PAL) test is utilized to evaluate safety and/or efficacy of psilocybin. The PAL task is a measure of visuo-spatial memory in which study subjects are required to remember locations at which visual stimuli are located. […] One or more of them will contain a pattern. […] If the subject makes an error, the boxes are opened in sequence again to remind the subject of the locations of the patterns. Increased difficulty levels can be used to test high-functioning, healthy individuals. The primary metric for this test is the number of errors made. This test takes approximately 8 min to complete. […]\nThe following list of outcome measures are non-exhaustive. • a. The short-term change from Baseline (Day −1 [Visit 2]) to Day 7 (Visit 5) in cognitive measures of attention, spatial and working memory and executive function was measured by a composite score of the CANTAB Panel (Spatial Working Memory [SWM], Rapid Visual Information Processing [RVP], Paired Associates Learning [PAL]). • b. The short-term change from Baseline (Day −1 [Visit 2]) to Day 7 (Visit 5) in Social Cognition Panel scales (Pictorial Empathy Test [PET], Reading the Mind in the Eyes Test [RMET], Toronto Empathy Questionnaire [TEQ], Social Value Orientation [SVO], Scale of Social Responsibility [SSR]). • c. […]"}, "[4]": {"conditions": "Day 7, psilocybin 10 mg - placebo"}, "[5]": {"conditions": "Day 7, psilocybin 25 mg - 10 mg"}, "[6]": {"conditions": "Day 7, psilocybin 25 mg - placebo"}, "[7]": {"conditions": "Day 84, psilocybin 10 mg - placebo"}, "[8]": {"conditions": "Day 84, psilocybin 25 mg - 10 mg"}, "[9]": {"conditions": "Day 84, psilocybin 25 mg - placebo"}}, "data": [{"smiles": "CN(C)CCc1c[nH]c2cccc(OP(=O)(O)O)c12", "note": "[Psilocybin, psilocybin]", "values": [{"measurement": "Frequency of rare side effects: HPPD/flashbacks; worsening of mental state after drug experience", "setting": "[1]", "result": "unknown but likely <2%)"}, {"measurement": "NEO agreeableness change from baseline, LS mean", "setting": "[2]; Day 7, psilocybin 10 mg", "result": "−0.2"}, {"measurement": "NEO conscientiousness change from baseline, LS mean", "setting": "[2]; Day 7, psilocybin 10 mg", "result": "−0.1"}, {"measurement": "NEO extraversion change from baseline, LS mean", "setting": "[2]; Day 7, psilocybin 10 mg", "result": 0.3}, {"measurement": "NEO neuroticism change from baseline, LS mean", "setting": "[2]; Day 7, psilocybin 10 mg", "result": 0.2}, {"measurement": "NEO openness change from baseline, LS mean", "setting": "[2]; Day 7, psilocybin 10 mg", "result": 0.3}, {"measurement": "NEO agreeableness change from baseline, LS mean difference", "setting": "[2]; [4]", "result": "−0.4"}, {"measurement": "NEO conscientiousness change from baseline, LS mean difference", "setting": "[2]; [4]", "result": 0.4}, {"measurement": "NEO extraversion change from baseline, LS mean difference", "setting": "[2]; [4]", "result": 0.4}, {"measurement": "NEO neuroticism change from baseline, LS mean difference", "setting": "[2]; [4]", "result": "−0.2"}, {"measurement": "NEO openness change from baseline, LS mean difference", "setting": "[2]; [4]", "result": 1.1}, {"measurement": "NEO agreeableness change from baseline, LS mean", "setting": "[2]; Day 7, psilocybin 25 mg", "result": 0.1}, {"measurement": "NEO conscientiousness change from baseline, LS mean", "setting": "[2]; Day 7, psilocybin 25 mg", "result": 0.1}, {"measurement": "NEO extraversion change from baseline, LS mean", "setting": "[2]; Day 7, psilocybin 25 mg", "result": 0.3}, {"measurement": "NEO neuroticism change from baseline, LS mean", "setting": "[2]; Day 7, psilocybin 25 mg", "result": 0.2}, {"measurement": "NEO openness change from baseline, LS mean", "setting": "[2]; Day 7, psilocybin 25 mg", "result": 0.4}, {"measurement": "NEO agreeableness change from baseline, LS mean difference", "setting": "[2]; [5]", "result": 0.4}, {"measurement": "NEO conscientiousness change from baseline, LS mean difference", "setting": "[2]; [5]", "result": 0.3}, {"measurement": "NEO extraversion change from baseline, LS mean difference", "setting": "[2]; [5]", "result": 0.1}, {"measurement": "NEO neuroticism change from baseline, LS mean difference", "setting": "[2]; [5]", "result": "−0.0"}, {"measurement": "NEO openness change from baseline, LS mean difference", "setting": "[2]; [5]", "result": 0.1}, {"measurement": "NEO agreeableness change from baseline, LS mean difference", "setting": "[2]; [6]", "result": "−0.1"}, {"measurement": "NEO conscientiousness change from baseline, LS mean difference", "setting": "[2]; [6]", "result": 0.7}, {"measurement": "NEO extraversion change from baseline, LS mean difference", "setting": "[2]; [6]", "result": 0.5}, {"measurement": "NEO neuroticism change from baseline, LS mean difference", "setting": "[2]; [6]", "result": 0.2}, {"measurement": "NEO openness change from baseline, LS mean difference", "setting": "[2]; [6]", "result": 1.2}, {"measurement": "NEO agreeableness change from baseline, LS mean", "setting": "[2]; Day 84, psilocybin 10 mg", "result": "−0.9"}, {"measurement": "NEO conscientiousness change from baseline, LS mean", "setting": "[2]; Day 84, psilocybin 10 mg", "result": "−1.3"}, {"measurement": "NEO extraversion change from baseline, LS mean", "setting": "[2]; Day 84, psilocybin 10 mg", "result": "−0.9"}, {"measurement": "NEO neuroticism change from baseline, LS mean", "setting": "[2]; Day 84, psilocybin 10 mg", "result": 2.1}, {"measurement": "NEO openness change from baseline, LS mean", "setting": "[2]; Day 84, psilocybin 10 mg", "result": 0.4}, {"measurement": "NEO agreeableness change from baseline, LS mean difference", "setting": "[2]; [7]", "result": "−0.8"}, {"measurement": "NEO conscientiousness change from baseline, LS mean difference", "setting": "[2]; [7]", "result": 0.2}, {"measurement": "NEO extraversion change from baseline, LS mean difference", "setting": "[2]; [7]", "result": "−0.7"}, {"measurement": "NEO neuroticism change from baseline, LS mean difference", "setting": "[2]; [7]", "result": 0.3}, {"measurement": "NEO openness change from baseline, LS mean difference", "setting": "[2]; [7]", "result": 1.1}, {"measurement": "NEO agreeableness change from baseline, LS mean", "setting": "[2]; Day 84, psilocybin 25 mg", "result": "−0.9"}, {"measurement": "NEO conscientiousness change from baseline, LS mean", "setting": "[2]; Day 84, psilocybin 25 mg", "result": "−0.1"}, {"measurement": "NEO extraversion change from baseline, LS mean", "setting": "[2]; Day 84, psilocybin 25 mg", "result": "−0.7"}, {"measurement": "NEO neuroticism change from baseline, LS mean", "setting": "[2]; Day 84, psilocybin 25 mg", "result": 0.8}, {"measurement": "NEO openness change from baseline, LS mean", "setting": "[2]; Day 84, psilocybin 25 mg", "result": 0.3}, {"measurement": "NEO agreeableness change from baseline, LS mean difference", "setting": "[2]; [8]", "result": 0.1}, {"measurement": "NEO conscientiousness change from baseline, LS mean difference", "setting": "[2]; [8]", "result": 1.2}, {"measurement": "NEO extraversion change from baseline, LS mean difference", "setting": "[2]; [8]", "result": 0.2}, {"measurement": "NEO neuroticism change from baseline, LS mean difference", "setting": "[2]; [8]", "result": "−1.3"}, {"measurement": "NEO openness change from baseline, LS mean difference", "setting": "[2]; [8]", "result": "−0.7"}, {"measurement": "NEO agreeableness change from baseline, LS mean difference", "setting": "[2]; [9]", "result": "−0.7"}, {"measurement": "NEO conscientiousness change from baseline, LS mean difference", "setting": "[2]; [9]", "result": 1.4}, {"measurement": "NEO extraversion change from baseline, LS mean difference", "setting": "[2]; [9]", "result": "−0.5"}, {"measurement": "NEO neuroticism change from baseline, LS mean difference", "setting": "[2]; [9]", "result": "−1.0"}, {"measurement": "NEO openness change from baseline, LS mean difference", "setting": "[2]; [9]", "result": 0.4}, {"measurement": "PALTEA improvement compared to placebo (LS mean difference from placebo)", "setting": "[3]; 10 mg", "result": "~2", "unit": "point"}, {"measurement": "PALTEA improvement compared to placebo (LS mean difference from placebo)", "setting": "[3]; 25 mg", "result": "~2", "unit": "point"}]}]}
